Assay results published in ChEMBL document CHEMBL1126817, “Synthesis, Biological Properties, and Structure-Activity Relationships of Quinoxaline Angiotensin II Receptor Antagonists” (Bioorg Med Chem Lett, 1993).

Columns and labels:
Angiotensin II receptor = molecular target: T1, Angiotensin II receptor (Rattus norvegicus, UniProt P29089+P25095+P35351); test: Tested for binding affinity by measuring displacement of [125I]-Sar1 Ile8 angiotensin II from rat adrenal cortical membranes; type: cell membranes, Membrane
T1 sequence (P29089 whole entry): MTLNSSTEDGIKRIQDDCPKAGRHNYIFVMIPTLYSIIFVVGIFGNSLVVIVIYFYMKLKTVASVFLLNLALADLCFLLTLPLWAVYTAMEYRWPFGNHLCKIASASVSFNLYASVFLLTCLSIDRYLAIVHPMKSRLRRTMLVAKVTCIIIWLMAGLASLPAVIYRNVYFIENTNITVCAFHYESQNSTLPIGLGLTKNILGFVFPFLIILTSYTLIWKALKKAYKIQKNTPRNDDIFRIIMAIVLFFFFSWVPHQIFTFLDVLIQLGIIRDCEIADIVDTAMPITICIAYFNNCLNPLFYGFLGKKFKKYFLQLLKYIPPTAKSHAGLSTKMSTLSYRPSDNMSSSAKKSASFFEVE
T1 sequence (P25095 whole entry): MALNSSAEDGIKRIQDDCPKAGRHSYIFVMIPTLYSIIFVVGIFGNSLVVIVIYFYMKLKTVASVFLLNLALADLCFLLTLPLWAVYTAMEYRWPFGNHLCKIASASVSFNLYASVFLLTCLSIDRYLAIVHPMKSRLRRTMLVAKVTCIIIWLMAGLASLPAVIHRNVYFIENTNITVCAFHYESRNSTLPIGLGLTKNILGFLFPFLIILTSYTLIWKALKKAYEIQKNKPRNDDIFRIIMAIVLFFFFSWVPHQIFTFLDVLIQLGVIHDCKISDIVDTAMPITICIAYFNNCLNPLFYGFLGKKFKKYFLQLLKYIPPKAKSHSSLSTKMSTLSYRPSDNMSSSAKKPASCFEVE
T1 sequence (P35351 whole entry): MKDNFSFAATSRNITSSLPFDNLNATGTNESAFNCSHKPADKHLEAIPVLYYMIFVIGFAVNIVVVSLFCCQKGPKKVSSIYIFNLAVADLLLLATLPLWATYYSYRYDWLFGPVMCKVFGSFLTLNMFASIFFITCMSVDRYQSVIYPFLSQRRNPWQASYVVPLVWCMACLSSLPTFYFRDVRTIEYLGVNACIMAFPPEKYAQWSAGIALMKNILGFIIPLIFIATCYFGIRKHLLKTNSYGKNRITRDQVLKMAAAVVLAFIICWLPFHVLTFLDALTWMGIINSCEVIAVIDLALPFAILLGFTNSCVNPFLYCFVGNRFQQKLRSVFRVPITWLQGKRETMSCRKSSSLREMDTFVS

Rattus norvegicus [1] = test: Tested for percent inhibition of compound against angiotensin II induced pressor response after 1 umol/kg intravenous administration in rats; inactive; type: functional
Rattus norvegicus [2] = organism: Rattus norvegicus; test: Tested for depression of contractions elicited by angiotensin II receptor in isolated rat aorta; type: functional
Rattus norvegicus [3] = test: Compound was tested for inhibition of angiotensin II induced pressor response after intravenous administration in rats.; type: functional
Rattus norvegicus [4] = test: Tested for percent inhibition of compound against angiotensin II induced pressor response after 3 umol/kg intravenous administration at 70 min in rats; type: functional

Row | Ki (Angiotensin II receptor) [nM] | SMILES | inhibition in vivo at 1 µmol/kg (Rattus norvegicus [1]) [%] | Kb (Rattus norvegicus [2]) [nM] | ED50 (Rattus norvegicus [3]) [µmol/kg] | inhibition in vivo at 3 µmol/kg (Rattus norvegicus [4]) [%]
1 | 29 | CCCCc1c(Cc2ccc(-c3ccccc3-c3nn[nH]n3)cc2)nc2ccccc2[n+]1[O-] |  | 52 |  | 
2 | 2.1 | CCCCc1nc2ccccc2[n+]([O-])c1Cc1ccc(-c2ccccc2-c2nn[nH]n2)cc1 |  | 5.3 |  | 

Further lines, the compound ahead of its results:

Row | SMILES | Ki (Angiotensin II receptor) [nM] | inhibition in vivo at 1 µmol/kg (Rattus norvegicus [1]) [%] | Kb (Rattus norvegicus [2]) [nM] | ED50 (Rattus norvegicus [3]) [µmol/kg] | inhibition in vivo at 3 µmol/kg (Rattus norvegicus [4]) [%]
3 | CCCCc1nc2cccc(C(=O)O)c2nc1Cc1ccc(-c2ccccc2-c2nn[nH]n2)cc1 | 6.9 | 7 | 0.49 |  | 
4 | CCCCc1nc2ccccc2nc1Cc1ccc(-c2ccccc2-c2nn[nH]n2)cc1 | 7 |  | 32 |  | 
5 | CCCCc1c(Cc2ccc(-c3ccccc3-c3nn[nH]n3)cc2)[n+]([O-])c2ccccc2[n+]1[O-] | 2.6 |  | 2.1 | 1.8 | 0
